Counter-ions that a name gives are not always drawn.
What was measured:
[1] = target: T1, recombinant guanylate cyclase reporter cell line (Rattus norvegicus, UniProt P19686+P20595); test: Effect on a recombinant guanylate cyclase reporter cell line (B-2); type: cell-based; conditions: MEC = minimum effective concentration, in some cases mean values for individual determinations
T1 construct: expressed in transfected cells
T1 sequence (P19686 1-690): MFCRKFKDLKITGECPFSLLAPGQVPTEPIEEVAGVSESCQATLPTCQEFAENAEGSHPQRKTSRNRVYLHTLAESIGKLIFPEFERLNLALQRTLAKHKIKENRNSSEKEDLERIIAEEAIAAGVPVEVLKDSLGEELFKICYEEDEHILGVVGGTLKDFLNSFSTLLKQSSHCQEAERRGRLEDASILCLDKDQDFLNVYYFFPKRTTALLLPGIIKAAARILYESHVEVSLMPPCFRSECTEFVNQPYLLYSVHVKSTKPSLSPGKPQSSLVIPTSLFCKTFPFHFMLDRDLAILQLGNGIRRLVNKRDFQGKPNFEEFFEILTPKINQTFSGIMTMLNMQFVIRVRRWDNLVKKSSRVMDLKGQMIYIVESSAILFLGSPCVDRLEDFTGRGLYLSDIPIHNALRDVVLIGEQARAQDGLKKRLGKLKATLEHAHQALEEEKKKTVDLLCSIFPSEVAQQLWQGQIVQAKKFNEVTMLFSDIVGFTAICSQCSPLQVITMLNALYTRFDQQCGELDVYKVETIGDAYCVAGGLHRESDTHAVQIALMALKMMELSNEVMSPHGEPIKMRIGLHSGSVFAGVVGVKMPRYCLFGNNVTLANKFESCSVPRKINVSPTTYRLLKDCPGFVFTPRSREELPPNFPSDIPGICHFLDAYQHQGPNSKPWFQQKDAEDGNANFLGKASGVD
T1 sequence (P20595 1-619): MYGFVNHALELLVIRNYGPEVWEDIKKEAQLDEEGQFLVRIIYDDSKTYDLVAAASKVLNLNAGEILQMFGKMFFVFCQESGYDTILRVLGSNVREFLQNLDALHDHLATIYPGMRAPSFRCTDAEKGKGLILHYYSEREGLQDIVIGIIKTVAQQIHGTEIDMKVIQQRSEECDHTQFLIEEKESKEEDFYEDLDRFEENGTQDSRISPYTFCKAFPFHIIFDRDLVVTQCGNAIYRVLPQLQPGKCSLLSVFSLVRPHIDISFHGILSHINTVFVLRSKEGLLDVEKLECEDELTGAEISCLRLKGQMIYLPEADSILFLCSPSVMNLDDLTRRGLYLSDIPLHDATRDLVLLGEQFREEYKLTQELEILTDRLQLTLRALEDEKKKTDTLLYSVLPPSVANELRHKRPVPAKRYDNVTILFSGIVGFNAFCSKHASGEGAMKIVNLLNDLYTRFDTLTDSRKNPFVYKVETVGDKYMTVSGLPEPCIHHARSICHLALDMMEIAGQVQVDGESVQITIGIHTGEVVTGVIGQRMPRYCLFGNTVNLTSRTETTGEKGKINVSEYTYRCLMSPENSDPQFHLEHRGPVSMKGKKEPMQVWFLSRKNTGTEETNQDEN
Outline: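 Cellular guanylate cyclase activity measured in a recombinant reporter cell line expressing rat soluble guanylate cyclase subunits. Values are minimum effective concentrations (MEC), some as means of individual determinations.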

[2] = target: T2, human phosphodiesterase 5 (PDE 5) (Homo sapiens, UniProt O76074); test: Inhibition of human phosphodiesterase 5 (PDE 5) (B-3); type: biochemical; conditions: PDE 5 preparation from human platelets; [8-3H] cGMP substrate, SPA; in some cases means of individual determinations
T2 construct: PDE 5 preparations are obtained from human platelets by disruption; from tissue; host or cells: human platelets (Mono Q ion exchange fractions with PDE 5 activity)
Outline: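 Enzyme partially purified from human platelets by Mono Q ion exchange; [8-3H]cGMP substrate (0.025 μCi), Tris-HCl pH 7.5 with MgCl2/EDTA, <70% conversion, 60 min at room temperature. Compounds tested at 4 to 0.0018 μM final; yttrium SPA bead read-out, IC50 from concentration–% inhibition plot.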

| SMILES | MEC [1] | IC50 [2] |
| --- | --- | --- |
| Cc1nc2c(OCc3c(F)cccc3F)cccn2c1-c1nc2c(c(C(N)=O)n1)C(C)(C)C(=O)N2 [Example 50, 2-{8-[(2,6-Difluorobenzyl)oxy]-2-methylimidazo[1,2-a]pyridin-3-yl}-5,5-dimethyl-6-oxo-6,7-dihydro-5H-pyrrolo[2,3-d]pyrimidine-4-carboxamide hydrochloride] | 0.3 µM | 29 nM |
| Cc1nc2c(OCc3c(F)cccc3F)cccn2c1-c1nc(NCC(N)(CF)CF)c2c(n1)NC(=O)C2(C)C [Example 33, 4-{[2-amino-3-fluoro-2-(fluoromethyl)propyl]amino}-2-{8-[(2,6-difluorobenzyl)oxy]-2-methylimidazo[1,2-a]pyridin-3-yl}-5,5-dimethyl-5,7-dihydro-6H-pyrrolo[2,3-d]pyrimidin-6-one] | 1 µM | 9.7 nM |
| Cc1nc2c(OCc3c(F)cccc3F)cccn2c1-c1nnc2c(n1)NC(=O)C2(C)C [Example 68, 3-{8-[(2,6-Difluorobenzyl)oxy]-2-methylimidazo[1,2-a]pyridin-3-yl}-7,7-dimethyl-5,7-dihydro-6H-pyrrolo[2,3-e][1,2,4]triazin-6-one] | 1 µM | 260 nM |
| Cc1nc2c(OCc3c(F)cccc3F)cccn2c1-c1nc(NCC(O)C(F)(F)F)c2c(n1)NC(=O)C2(C)C (racemic) [Example 18, rac-2-{8-[(2,6-difluorobenzyl)oxy]-2-methylimidazo[1,2-a]pyridin-3-yl}-5,5-dimethyl-4-[(3,3,3-trifluoro-2-hydroxypropyl)amino]-5,7-dihydro-6H-pyrrolo[2,3-d]pyrimidin-6-one] | 1 µM | 19 nM |
| Cc1nc2c(OCc3c(F)cccc3F)cccn2c1-c1nc(C#N)c2c(n1)NC(=O)C2(C)C [Example 48, 2-{8-[(2,6-Difluorobenzyl)oxy]-2-methylimidazo[1,2-a]pyridin-3-yl}-5,5-dimethyl-6-oxo-6,7-dihydro-5H-pyrrolo[2,3-d]pyrimidine-4-carbonitrile] | 1 µM | 190 nM |
| Cc1nc2c(OCc3c(F)cccc3F)cccn2c1-c1nc(NCC(N)C(F)(F)F)c2c(n1)NC(=O)C2(C)C (racemic) [Example 25, rac-4-[(2-amino-3,3,3-trifluoropropyl)amino]-2-{8-[(2,6-difluorobenzyl)oxy]-2-methylimidazo[1,2-a]pyridin-3-yl}-5,5-dimethyl-5,7-dihydro-6H-pyrrolo[2,3-d]pyrimidin-6-one] | 3 µM | 15 nM |
| Cc1nc2c(OCc3c(F)ccc(F)c3F)cccn2c1-c1nc2c(c(C(=O)N3CC(N)C(F)(F)C3)n1)C(C)(C)C(=O)N2 (racemic) [Example 61, rac-4-[(4-amino-3,3-difluoropyrrolidin-1-yl)carbonyl]-5,5-dimethyl-2-{2-methyl-8-[(2,3,6-trifluorobenzyl)oxy]imidazo[1,2-a]pyridin-3-yl}-5,7-dihydro-6H-pyrrolo[2,3-d]pyrimidin-6-one trifluoroacetate] | 3 µM | 730 nM |

Second part, the molecule after the results:

| MEC [1] | IC50 [2] | SMILES |
| --- | --- | --- |
| 0.3 µM | 0.3 nM | Cc1nc2c(OCc3c(F)cccc3F)cccn2c1-c1nc2c(c(NC3CCC(C)(O)CC3)n1)C(C)(C)C(=O)N2 (single isomer, unassigned; diastereomer 1) [Example 28, 2-{8-[(2,6-difluorobenzyl)oxy]-2-methylimidazo[1,2-a]pyridin-3-yl)-4-[(4-hydroxy-4-methylcyclohexyl)amino]-5,5-dimethyl-5,7-dihydro-6H-pyrrolo[2,3-d]pyrimidin-6-one formate (Diastereomer 1)] |
| 0.1 µM | 6 nM | Cc1nc2c(OCc3c(F)cccc3F)cccn2c1-c1nc(NCC2(N)CC2)c2c(n1)NC(=O)C2(C)C [Example 42, 4-{[(1-Aminocyclopropyl)methyl]amino}-2-{8-[(2,6-difluorobenzyl)oxy]-2-methylimidazo[1,2-a]pyridin-3-yl}-5,5-dimethyl-5,7-dihydro-6H-pyrrolo[2,3-d]pyrimidin-6-one] |
| 1 µM | 3.6 nM | Cc1nc2c(OCc3c(F)cccc3F)cccn2c1-c1nc2c(c(NC3CC(O)C3)n1)C(C)(C)C(=O)N2 (mixture of isomers) [Example 30, 2-{8-[(2,6-difluorobenzyl)oxy]-2-methylimidazo[1,2-a]pyridin-3-yl}-4-[(3-hydroxycyclobutyl)amino]-5,5-dimethyl-5,7-dihydro-6H-pyrrolo[2,3-d]pyrimidin-6-one [cis/trans mixture]] |
| 0.2 µM | 3.6 nM | Cc1nc2c(OCc3c(F)cccc3F)cccn2c1-c1nc(NCC(C)(C)N)c2c(n1)NC(=O)C2(C)C [Example 12, 4-[(2-Amino-2-methylpropyl)amino]-2-{8-[(2,6-difluorobenzyl)oxy]-2-methylimidazo[1,2-a]pyridin-3-yl}-5,5-dimethyl-5,7-dihydro-6H-pyrrolo[2,3-d]pyrimidin-6-one] |
| 0.3 µM | 9.6 nM | Cc1nc2c(OCc3c(F)cccc3F)cccn2c1-c1nc(NCC(C)(N)C(F)F)c2c(n1)NC(=O)C2(C)C (racemic) [Example 39, rac-4-[(2-amino-3,3-difluoro-2-methylpropyl)amino]-2-{8-[(2,6-difluorobenzyl)oxy]-2-methylimidazo[1,2-a]pyridin-3-yl}-5,5-dimethyl-5,7-dihydro-6H-pyrrolo[2,3-d]pyrimidin-6-one] |
| 0.3 µM | 4.3 nM | Cc1nc2c(OCc3c(F)ccc(F)c3F)cccn2c1-c1nc2c(c(C(N)=O)n1)C(C)(C)C(=O)N2 [Example 53, 5,5-Dimethyl-2-{2-methyl-8-[(2,3,6-trifluorobenzyl)oxy]imidazo[1,2-a]pyridin-3-yl}-6-oxo-6,7-dihydro-5H-pyrrolo[2,3-d]pyrimidine-4-carboxamide] |

Reference: patent US9688699B2, “3-(pyrimidine-2-yl)imidazo[1,2-a]pyridines” (Bayer Pharma Aktiengesellschaft, priority 2014, dated 2017)
